Experimental data reported in ChEMBL document CHEMBL2086374, “C-Glucosylated malonitrile as a key intermediate towards carbohydrate-based glycogen phosphorylase inhibitors” (Bioorg Med Chem, 2012).

How the values were obtained:
[1] = molecular target: T1, Glycogen phosphorylase, muscle form (Oryctolagus cuniculus) (UniProt P00489); experiment: Inhibition of rabbit skeletal muscle glycogen phosphorylase-B using glucose-1-phosphate substrate assessed as […] in phosphate release at 250 uM
T1 sequence (whole entry): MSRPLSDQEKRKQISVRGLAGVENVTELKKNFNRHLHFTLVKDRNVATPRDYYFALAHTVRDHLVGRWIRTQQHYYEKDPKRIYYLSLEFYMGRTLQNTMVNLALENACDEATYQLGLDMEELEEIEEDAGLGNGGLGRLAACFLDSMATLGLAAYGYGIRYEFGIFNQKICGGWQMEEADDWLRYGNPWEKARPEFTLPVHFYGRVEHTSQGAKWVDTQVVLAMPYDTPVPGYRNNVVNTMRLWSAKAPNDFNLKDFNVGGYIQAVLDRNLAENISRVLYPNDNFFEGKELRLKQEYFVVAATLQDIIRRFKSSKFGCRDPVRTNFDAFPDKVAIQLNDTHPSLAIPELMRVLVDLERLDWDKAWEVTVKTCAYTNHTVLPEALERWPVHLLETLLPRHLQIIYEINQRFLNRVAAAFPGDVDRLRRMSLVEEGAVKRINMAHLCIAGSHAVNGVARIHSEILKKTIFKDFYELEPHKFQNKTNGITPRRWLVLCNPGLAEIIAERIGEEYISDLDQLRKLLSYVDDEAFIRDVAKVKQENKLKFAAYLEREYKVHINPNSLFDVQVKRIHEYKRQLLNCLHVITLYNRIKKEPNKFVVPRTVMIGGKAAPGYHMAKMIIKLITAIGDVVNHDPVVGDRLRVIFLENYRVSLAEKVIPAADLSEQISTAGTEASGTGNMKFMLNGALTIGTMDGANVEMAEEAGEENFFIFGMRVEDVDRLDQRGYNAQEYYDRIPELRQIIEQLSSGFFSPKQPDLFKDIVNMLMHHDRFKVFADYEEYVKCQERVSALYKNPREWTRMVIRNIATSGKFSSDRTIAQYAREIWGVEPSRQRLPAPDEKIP

[2] = Solubility of compound in water in presence of 20% DMSO; type: physicochemical; settings: buffer
[3] = molecular target: T1, Glycogen phosphorylase, muscle form (Oryctolagus cuniculus); experiment: Inhibition of rabbit skeletal muscle glycogen phosphorylase-B using glucose-1-phosphate substrate assessed as […] in phosphate release at 300 uM
[4] = molecular target: T1, Glycogen phosphorylase, muscle form (Oryctolagus cuniculus); experiment: Inhibition of rabbit skeletal muscle glycogen phosphorylase-B using glucose-1-phosphate substrate assessed as […] in phosphate release at 1000 uM

Compound | inhibition [4] [%] | further results
OC[C@H]1O[C@@H](C(c2nc(-c3ccc4ccccc4c3)no2)c2nc(-c3ccc4ccccc4c3)no2)[C@H](O)[C@@H](O)[C@@H]1O | – | inhibition [1]: 38%; solubility [2]: Insoluble
O=C(NCC(CNC(=O)c1ccc2ccccc2c1)[C@@H]1O[C@H](CO)[C@@H](O)[C@H](O)[C@H]1O)c1ccc2ccccc2c1 | – | inhibition [3]: 44%
Cc1ccc(-c2noc(C(c3nc(-c4ccc(C)cc4)no3)[C@@H]3O[C@H](CO)[C@@H](O)[C@H](O)[C@H]3O)n2)cc1 | 39 | –
O=C(NCC(CNC(=O)c1ccccc1)[C@@H]1O[C@H](CO)[C@@H](O)[C@H](O)[C@H]1O)c1ccccc1 | 21 | –
O=C1NCC([C@@H]2O[C@H](CO)[C@@H](O)[C@H](O)[C@H]2O)CN1 | 8.5 | –
